Test results taken from patent publication US20230203060A1 (GENFLEET THERAPEUTICS (SHANGHAI) INC., priority 2020, published 2023).

Assays:
Format in all cases: cell-based, human
[1] = test system: KRAS G12C mutant MIA PaCa-2 cells; experiment: Cell proliferation inhibition experiment, 3D spheroid, CellTiter-Glo, MIA PaCa-2; conditions: Homo sapiens, MIA PaCa-2, 120 h, 3D cell model in 384-well spheroid plate, 5 days, CellTiter-Glo; read-out: MIA-PaCa2 IC50
From the text: Raw materials and instruments: MIA PaCa-2 purchased from ATCC; article number: CRL-1420; batch number: 63143594; DMEM purchased from Gibco; article number: 11995-065; batch number: 2186878; FBS purchased from Gibco; article number: 10099-141; batch number: 2109290CP; Horse Serum purchased from Gibco; article number: 16050-122; batch number: 1818976; PS purchased from Gibco; article number: 15140-122; batch number: 2145451; Trypsin-EDTA purchased from Gibco; article number: 25200-072; batch number: 2085552; CellTiter Glo working solution purchased from Promega; article number: G9683; batch number 398478; DMSO purchased from VWR AMRESCO; article number: 0231-500ML; batch number: 18C0656168; 384-well spheroid plate purchased from Corning; article number: 3830; batch number: 27519032; white opaque 384-well plate purchased from Corning; article number: 3570; batch number: 26819023; microplate reader purchased from PerkinElmer; model: Envision MLD2105-0020; equipment number 1050369.
MIA PaCa-2 is a KRAS G12C mutant human pancreatic cancer cell line, cultured in 10% FBS+2.5% Horse Serum DMEM+1% PS culture medium; cells at logarithmic growth stage were taken, digested with trypsin-EDTA, then collected and counted, and 200 MIA PaCa-2 were inoculated in a 384-well spheroid plate, respectively, and cultured overnight to establish a 3D cell model. A 3.16-fold gradient concentration stock solution of 1000× compound was prepared with DMSO, and diluted 100-fold to 10× compound stock solution with culture medium. On the second day after cell inoculation, 10× compound stock solution was added to each cell culture well, with a final concentration of 1× and a DMSO content of 0.1%. DMSO was used as experimental control (control), and culture medium was used as blank control (blank). After 5 days of compound cell culture, 30 μL of CellTiter-Glo working solution was added to each well, mixed well and incubated for 30 minutes. After standing at room temperature for 30 minutes, 40 μL of the mixed solution was transferred to a white opaque 384-well plate, and the luminescence chemiluminescence value was read with a microplate reader. The cell proliferation inhibition rate IR (%)=(RLU control -RLU compound)/(RLU control−RLU blank)×100% was calculated. The gradient dilution concentration of the compound and the corresponding cell proliferation inhibition rate were fitted by XLFit four-parameter method, and the IC50 value was calculated. The inhibitory activity of the compounds prepared in the above embodiments of the present disclosure on KRAS G12C mutant MIA PaCa-2 cells was 0.0001 μM to 0.5 μM; the inhibitory activity of some compounds on KRAS G12C mutant MIA PaCa-2 cells was 0.001 μM to 0.1 μM or 0.001 μM to 0.05 μM.

[2] = test system: KRAS G12C mutant NCI-H358 cells; experiment: Cell proliferation inhibition experiment, 3D spheroid, CellTiter-Glo, NCI-H358; conditions: Homo sapiens, NCI-H358, 120 h, NCI-H358 (KRAS G12C mutant) 3D spheroid, 5 days with compound, CellTiter-Glo; read-out: H358 IC50
In short: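 CellTiter-Glo luminescence after 5 days' compound treatment (3.16-fold series, 0.1% DMSO) of overnight-formed spheroids in 2% FBS medium: H358 seeded at 800 cells/well in RPMI-1640, A549 at 400 cells/well in F-12K. IC50 derived by four-parameter fit of inhibition normalized to DMSO control and blank.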

[3] = test system: A549 cells (KRAS G12S mutant); experiment: Cell proliferation inhibition experiment, 3D spheroid, CellTiter-Glo, A549; conditions: Homo sapiens, A549, 120 h, A549 (KRAS G12S mutant) 3D spheroid, 5 days with compound, CellTiter-Glo; read-out: A549 IC50
From the text: Raw materials and instruments: NCI-H358 purchased from ATCC; article number: CRL-5807; batch number: 70010825; A549 purchased from ATCC; article number: CCL-185; batch number: 70007820; RPMI1640 purchased from Gibco; article number: 11875-093; batch number: 2152748; F-12K purchased from Gibco; article number: 21127-022; batch number: 2185853; FBS purchased from Gibco; article number: 10099-141; batch number: 2109290CP; PS purchased from Gibco; article number: 15140-122; batch number: 2145451; Trypsin-EDTApurchased from Gibco; article number: 25200-072; batch number: 2085552; CellTiter Glo working solution purchased from Promega; article number: G9683; batch number: 398478; DMSO purchased from VWR AMRESCO; article number: 0231-500ML; batch number: 18C0656168; 384-well spheroid plate purchased from Corning; article number: 3830; batch number: 27519032; white opaque 384-well plate purchased from Corning; article number: 3570; batch number: 26819023; microplate reader purchased from PerkinElmer; model: Envision MLD2105-0020; equipment number 1050369.
NCI-H358 is a KRAS G12C mutant human non-small cell lung cancer cell line, cultured in 10% FBS RPMI-1640+1% PS culture medium; and A549 is a KRAS G12S mutant human lung adenocarcinoma cell line, cultured in 10% FBS F-12K+1% PS culture medium. Cells at logarithmic growth stage were taken, digested with trypsin-EDTA, then collected and counted. H358 was adjusted to 1.8 E4 cells/mL with 2% FBS RPMI-1640 culture medium, and A549 was adjusted to 8.9 E3 cells/mL with 2% FBS F-12K culture medium; 800 (45 μL) H358 or 400 (45 μL) A549 were inoculated respectively in a 384-well spheroid plate and cultured overnight to establish a 3D cell model. A 3.16-fold gradient concentration stock solution of 1000× compound was prepared with DMSO, and diluted 100-fold to 10× compound stock solution with 2% FBS culture medium. On the second day after cell inoculation, 5 μL of 10× compound stock solution was added to each cell culture well, with a final concentration of 1× and a DMSO content of 0.1%. DMSO was used as experimental control (control), and 2% FBS culture medium was used as blank control (blank). After 5 days of compound cell culture, 25 μL of CellTiter-Glo working solution was added to each well, mixed well at 400 rpm and incubated for 30 minutes. After standing at room temperature for 30 minutes, 40 μL of the mixed solution was transferred to a white opaque 384-well plate, and the luminescence chemiluminescence value was read with a microplate reader. The cell proliferation inhibition rate IR (%)=(RLU control -RLU compound)/(RLU control -RLU blank) x100% was calculated. The gradient dilution concentration of the compound and the corresponding cell proliferation inhibition rate were fitted by Prism 6 four-parameter method, and the IC50 value was calculated. The inhibitory activity of the compounds prepared in the above embodiments of the present disclosure on KRAS G12C mutant NCI-H358 cells was 0.0001 μM to 0.5 μM; the inhibitory activity of some compounds on KRAS G12C mutant NCI-H358 cells was 0.001 μM to 0.1 μM or 0.001 μM to 0.05 μM.

Row | Compound | IC50 [1] [nM] | IC50 [2] [nM] | IC50 [3] [nM]
1 | C=CC(=O)N1CCN2C(=O)c3c(N4[C@@H]5CC[C@H]4COC5)nc(-c4c(O)cccc4F)c(Cl)c3OC[C@H]2C1 [Z38, (6aR)-8-acryloyl-1-((1R,5S)-3-oxa-8-azabicyclo[3.2.1]octan-8-yl)-4-chloro-3-(2-fluoro-6-hydroxyphenyl)-6,6a,7,8,9,10-hexahydro-12H-pyrazino[2,1-c]pyrido[3,4-f][1,4]oxazepin-12-one] | 88 | 55 | > 10000
2 | C=CC(=O)N1CCN2C(=O)c3c(N4CCOCC4(C)C)nc(-c4c(O)cccc4F)c(Cl)c3OC[C@H]2C1 [Z70, (6aR)-8-acryloyl-4-chloro-1-(3,3-dimethylmorpholino)-3-(2-fluoro-6-hydroxyphenyl)-6,6a,7,8,9,10-hexahydro-12H-pyrazino[2,1-c]pyrido[3,4-f][1,4]oxazepin-12-one] | 52 | 25 | > 10000
3 | C=CC(=O)N1CCN2C(=O)c3c(N4CCOC5(CCC5)C4)nc(-c4c(O)cccc4F)c(Cl)c3OC[C@H]2C1 [Z36, (6aR)-8-acryloyl-4-chloro-3-(2-fluoro-6-hydroxyphenyl)-1-(5-oxa-8-azaspiro[3.5]nonan-8-yl)-6,6a,7,8,9,10-hexahydro-12H-pyrazino[2,1-c]pyrido[3,4-f][1,4]oxazepin-12-one] | 57 | 40 | > 1000
4 | C=CC(=O)N1CCN2C(=O)c3c(Nc4c(C)ccnc4C(C)C)nc(-c4ccccc4F)c(Cl)c3OC[C@H]2C1 [Z8, (R)-8-acryloyl-4-chloro-3-(2-fluorophenyl)-1-((2-isopropyl-4-methylpyridin-3-yl)amino)-6,6a,7,8,9,10-hexahydro-12H-pyrazino[2,1-c]pyrido[3,4-f][1,4]oxazepin-12-one] | 232 | 51 | 5090
5 | C=CC(=O)N1CCN2C(=O)c3c(Nc4c(C)ccnc4C(C)C)nc(-c4c(O)cccc4F)c(F)c3OC[C@H]2C1 [Z9, (6aR)-8-acryloyl-4-fluoro-3-(2-fluoro-6-hydroxyphenyl)-1-((2-isopropyl-4-methylpyridin-3-yl)amino)-6,6a,7,8,9,10-hexahydro-12H-pyrazino[2,1-c]pyrido[3,4-f][1,4]oxazepin-12-one] | 95 | 23 | 11300
6 | C=CC(=O)N1CCN2C(=O)c3c(O[C@@H]4CCN(C)C4)nc(-c4c(O)cccc4F)c(Cl)c3OC[C@H]2C1 [Z64, (6aR)-8-acryloyl-4-chloro-3-(2-fluoro-6-hydroxyphenyl)-1-(((R)-1-methylpyrrolidin-3-yl)oxy)-6,6a,7,8,9,10-hexahydro-12H-pyrazino[2,1-c]pyrido[3,4-f][1,4]oxazepin-12-one] | 268 | 287 | > 30000
7 | C=CC(=O)N1CCN2C(=O)c3c(N4CCC5CN(C)CC54)nc(-c4c(O)cccc4F)c(Cl)c3OC[C@H]2C1 (stereo partly drawn) [Z47, (6aR)-8-acryloyl-4-chloro-3-(2-fluoro-6-hydroxyphenyl)-1-(5-methylhexahydropyrrolo[3,4-b]pyrrol-1(2H)-yl)-6,6a,7,8,9,10-hexahydro-12H-pyrazino[2,1-c]pyrido[3,4-f][1,4]oxazepin-12-one] | 42 | 47 | > 20000
8 | C=CC(=O)N1CCN2C(=O)c3c(N4C[C@H]5CC[C@@H](C4)O5)nc(-c4c(O)cccc4F)c(Cl)c3OC[C@H]2C1 [Z62, (6aR)-8-acryloyl-4-chloro-1-((1R,5S)-8-oxa-3-azabicyclo[3.2.1]octan-3-yl)-3-(2-fluoro-6-hydroxyphenyl)-6,6a,7,8,9,10-hexahydro-12H-pyrazino[2,1-c]pyrido[3,4-f][1,4]oxazepin-12-one] | 29 | 23 | > 10000
9 | C=CC(=O)N1CCN2Cc3c(NC(C)(C)C)nc(-c4c(O)cccc4F)c(Cl)c3OC[C@H]2C1 [Z71, 1-((6aR)-1-(tert-butylamino)-4-chloro-3-(2-fluoro-6-hydroxyphenyl)-6a,7,9,10-tetrahydro-12H-pyrazino[2,1-c]pyrido[3,4-f][1,4]oxazepin-8(6H)-yl)prop-2-en-1-one] | 467 | 275 | > 10000
10 | C=CC(=O)N1CCN2C(=O)c3c(O[C@H]4CCN(C)C4)nc(-c4c(O)cccc4F)c(Cl)c3OC[C@H]2C1 [Z65, (6aR)-8-acryloyl-4-chloro-3-(2-fluoro-6-hydroxyphenyl)-1-(((S)-1-methylpyrrolidin-3-yl)oxy)-6,6a,7,8,9,10-hexahydro-12H-pyrazino[2,1-c]pyrido[3,4-f][1,4]oxazepin-12-one] | 38 | 51 | > 30000
11 | C=CC(=O)N1CCN2C(=O)c3c(N4CCSCC4)nc(-c4c(O)cccc4F)c(Cl)c3OC[C@H]2C1 [Z264, (6aR)-8-acryloyl-4-chloro-3-(2-fluoro-6-hydroxyphenyl)-1-thiomorpholino-6,6a,7,8,9,10-hexahydro-12H-pyrazino[2,1-c]pyrido[3,4-f][1,4]oxazepin-12-one] | 98 | 85 | 9480
